Consider 7 compounds from patent EP0027679B1, “Substituted-5-((7-chloro-4-quinolinyl)amino)-3-(amino-methyl)-(1,1'-biphenyl)-2-ol compounds; processes for their production; and pharmaceutical compositions containing the compounds” (WARNER-LAMBERT COMPANY, priority 1979, dated 1981).

For assay [1] the following is noted: Burckhalter article, Tables VI and XI; cited from earlier work.
For assay [2], the system named is chloroquine-pyrimethamine-resistant Vietnam Smith strain of P. Falciparum. The assay is described as follows: Owl monkey infection with P. falciparum trophozoites, Vietnam Smith strain. The format is in vivo, owl monkeys. The settings on record: for curative: orally at 2.0 mg/kg/day for a three day period; for cleared the parasitemia: orally at 1.0 mg/kg/day for three days. As for the experimental part:
(§1) Studies were also conducted with infections resulting from inoculations of owl monkeys with trophozoites of the chloroquine-pyrimethamine-resistant Vietnam Smith strain of P. Falciparum; the chloroquine-quinine-resistant, pyrimethamine-susceptible Vietnam Oak Knoll strain of P. Falciparum; or the pyrimethamine-resistant Uganda Palo Alto strain of P. Falciparum. The test method is described in L. H. Schmidt, Trans. R. Soc. Trop. Med Hyg. 67 446 (1973).

In assay [3] the test system is chloroquine-quinine-resistant, pyrimethamine-susceptible Vietnam Oak Knoll strain of P. Falciparum. The assay is described as follows: Owl monkey infection with P. falciparum trophozoites, Vietnam Oak Knoll strain. The settings on record: for activity relative to amodiaquine as curative agents: Oak Knoll strains of the malaria parasite; for curative / cleared the parasitemia: Vietnam Oak Knoll strain; for curative: orally at 2.0 mg/kg/day for a three day period; for activity relative to amodiaquine in clearing parasites: Oak Knoll strain; for cleared the parasitemia: orally at 1.0 mg/kg/day for three days. Format: in vivo, owl monkeys. The method, then:
as §1

The subject of assay [4] is normal drug-sensitive strain of Plasmodium berghei. As to the kind of experiment: Plasmodium berghei in mice, single subcutaneous dose 72 h post infection, mean survival time and cures. Format: in vivo. The conditions noted are these: Table I; for MST after single s.c. dose (extension of survival time over the controls): animals not cured, control MST 6.1-6.3 days; for MST after single s.c. dose: animals cured (C): five animal group. As for the experimental part: Compounds of the invention were tested against a normal drug-sensitive strain of Plasmodium berghei in mice by the parenteral route by a procedure described in J. Med. Chem., 1043 (1967). The compounds were dissolved or suspended in sesame or peanut oil and were administered to mice in a single subcutaneous dose seventy-two hours post infection. Extension of the mean survival time of the treated mice is interpreted as evidence of anti-malarial activity. Compounds are arbitrarily considered to be "active" when they produce at least a 100 percent increase in the mean survival time of treated mice. Animals that survive to sixty days are considered "cured" (termed "C" in Tables I and II). The means survival time (MST) of infected control mice ranges from 6.1-6.3 days while the numbers in parentheses in Tables I and II indicate extension of survival time over the controls as an average for those animals of the five animal group not "cured".

Assay [5] has as its system pyrimethamine-resistant Uganda Palo Alto strain of P. Falciparum. The assay is described as follows: Owl monkey infection with P. falciparum trophozoites, Uganda Palo Alto strain. Format: in vivo, owl monkeys. The settings on record: orally at 1.0 mg/kg/day for three days. As for the experimental part: as §1

In the case of `CCN(CC)Cc1cc(Nc2ccnc3cc(Cl)ccc23)cc(Cl)c1O` [SN-13729], the quinine equivalent in assay [1] was 12.
Regarding `CCN(CC)Cc1cc(Nc2cc[n+]([O-])c3cc(Cl)ccc23)cc(-c2ccc(Cl)cc2)c1O` [Example 1], the curative entry in assay [2] is listed as “curative”. For the same compound, in assay [3], the “activity relative to amodiaquine as curative agents” value is recorded as “twenty times the activity of amodiaquine” and the curative result is “curative”.
In the case of `C=CCc1cc(Nc2ccnc3cc(Cl)ccc23)cc(CN(CC)CC)c1O` [SN-11991], the quinine equivalent in assay [1] was 10.
`CCN(CC)Cc1cc(Nc2ccnc3cc(Cl)ccc23)ccc1O` [Amodiaquine, reference compound]: the “MST after single s.c. dose (extension of survival time over the controls)” value was 5.7 days in assay [4] (dose 10 (dose unit not given)), 8.3 days in assay [4] (dose 20 (dose unit not given)) and 11.9 days in assay [4] (dose 40 (dose unit not given)). Besides, the “MST after single s.c. dose: animals cured (C)” value (from here on “MST … (C)”) in assay [4] (dose 80 (dose unit not given)) is on record as 2C; in assay [4] (dose 160 (dose unit not given)), 5C; in assay [4] (dose 320 (dose unit not given)), 5C; in assay [4] (dose 640 (dose unit not given)) it was 5C.
Turning to `CC(C)(C)NCc1cc(Nc2ccnc3cc(Cl)ccc23)cc(-c2ccc(Cl)cc2)c1O` [Example 3, 4'-chloro-5-[(7-chloro-4-quinolinyl)amino]-3-[[(1,1-dimethylethyl)amino]methyl][1,1'-biphenyl]-2-ol], the cleared the parasitemia entry in assay [2], in assay [3] and in assay [5] was “cleared the parasitemia” throughout. Besides, the “activity relative to amodiaquine in clearing parasites” value in assay [3] is listed as “twenty times the activity of amodiaquine”.
Regarding `CC(C)(C)NCc1cc(Nc2cc[n+]([O-])c3cc(Cl)ccc23)cc(-c2ccc(Cl)cc2)c1O` [4—Cl, H, NHC(CH3)3, 1, 4'-chloro-5-[(7-chloro-4-quinolinyl)aminoj-3-[[1,1-dimethylethyl)amino]methyl]-[1,1'-biphenyl]-2-ol-1-oxide], the curative entry in assay [2] is “curative”. For the same compound, in assay [3], the “activity relative to amodiaquine as curative agents” value is “twenty times the activity of amodiaquine” and the curative result was “curative”.
As for `CCN(CC)Cc1cc(Nc2ccnc3cc(Cl)ccc23)cc(-c2ccc(Cl)cc2)c1O` [Example 2, 4'-chloro-5-[(7-chloro-4-quinolinyl)amino]-3-[(diethylamino)methyl][1,1'-biphenyl]-2-ol], the “MST after single s.c. dose (extension of survival time over the controls)” value in assay [4] (dose 10 (dose unit not given)) turned out to be 14.2 days. Further, the “MST … (C)” value is 2C in assay [4] (dose 10 (dose unit not given)); 3C in assay [4] (dose 20 (dose unit not given)); 4C in assay [4] (dose 40 (dose unit not given)); 5C in assay [4] (dose 80 (dose unit not given)); 5C in assay [4] (dose 160 (dose unit not given)); 5C in assay [4] (dose 320 (dose unit not given)). The “MST … (C)” value in assay [4] (dose 640 (dose unit not given)) was determined as 5C. For the same compound, the cleared the parasitemia result in assay [2], in assay [3] and in assay [5] was “cleared the parasitemia” throughout. Moreover, the “activity relative to amodiaquine in clearing parasites” value in assay [3] is “twenty times the activity of amodiaquine”.
